Assay results published in patent publication US11661426B2, “Imidazole-containing inhibitors of ALK2 kinase” (BioCryst Pharmaceuticals, Inc., priority 2017, dated 2023).

Target: ALK2 (Homo sapiens (Human), UniProt Q04771)
Test: ALK2 inhibition, LanthaScreen Eu Kinase Binding Assay (ThermoFisher Scientific / Life Technologies)
Details: read-out: Measured Ki (IC50) Value for Compounds: IC50
Description: Biochemical assays to measure the inhibitory effects of the compounds were performed by ThermoFisher Scientific (Life Technologies). ALK2 inhibition was tested using LanthaScreen™ Eu Kinase Binding Assay screening protocol.

ALK2, sequence (Q04771 21-509): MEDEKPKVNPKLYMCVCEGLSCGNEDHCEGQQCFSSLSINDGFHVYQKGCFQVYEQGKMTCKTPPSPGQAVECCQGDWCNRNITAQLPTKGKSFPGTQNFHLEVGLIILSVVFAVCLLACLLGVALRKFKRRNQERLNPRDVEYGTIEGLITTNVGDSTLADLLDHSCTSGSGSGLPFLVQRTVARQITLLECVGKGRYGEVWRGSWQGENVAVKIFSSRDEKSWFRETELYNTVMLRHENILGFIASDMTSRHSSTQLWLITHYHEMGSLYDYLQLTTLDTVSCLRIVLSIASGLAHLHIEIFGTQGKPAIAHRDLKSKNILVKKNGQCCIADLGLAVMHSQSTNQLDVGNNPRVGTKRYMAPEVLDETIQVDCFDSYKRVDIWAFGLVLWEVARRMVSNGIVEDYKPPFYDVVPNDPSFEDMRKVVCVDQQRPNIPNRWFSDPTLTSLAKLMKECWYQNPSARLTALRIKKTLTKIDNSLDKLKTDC

COc1cc(-n2cnc(Nc3nc(N4CCC[C@H]4C(N)=O)nc4c3CCN(CCC(N)=O)C4)c2)cc(OC)c1OC [Compound 255a, (S)-1-(7-(3-amino-3-oxopropyl)-4-((1-(3,4,5-trimethoxyphenyl)-1H-imidazol-4-yl)amino)-5,6,7,8-tetrahydropyrido[3,4-d]pyrimidin-2-yl)pyrrolidine-2-carboxamide]
IC50: < 0.1 µM

CCOc1ccc(-n2cnc(Nc3nc(N4CCC[C@H]4CO)c4cccn4n3)c2)cc1OCC [Compound 256d, (S)-(1-(2-((1-(3,4-diethoxyphenyl)-1H-imidazol-4-yl)amino)pyrrolo[2,1-f][1,2,4]triazin-4-yl)pyrrolidin-2-yl)methanol]
IC50: > 1 µM

COc1cc(C)cc(-n2cnc(Nc3nc(N4CCC[C@H]4CO)c4cccn4n3)c2)c1 [Compound 257d, (S)-(1-(2-((1-(3-methoxy-5-methylphenyl)-1H-imidazol-4-yl)amino)pyrrolo[2,1-f][1,2,4]triazin-4-yl)pyrrolidin-2-yl)methanol]
IC50: 0.1 to 1 µM

COc1cc(-n2cnc(Nc3nc(N4CCC[C@H]4CO)c4cccn4n3)c2)ccc1C#N [Compound 258d, (S)-4-(4-((4-(2-(hydroxymethyl)pyrrolidin-1-yl)pyrrolo[2,1-f][1,2,4]triazin-2-yl)amino)-1H-imidazol-1-yl)-2-methoxybenzonitrile]
IC50: > 1 µM

COc1cc(-n2cnc(Nc3nc(N4CCC[C@H]4CO)c4ccc(C(=O)N5CCCCC5)n4n3)c2)cc(OC)c1OC [Compound 259d, (S)-(4-(2-(hydroxymethyl)pyrrolidin-1-yl)-2-((1-(3,4,5-trimethoxyphenyl)-1H-imidazol-4-yl)amino)pyrrolo[2,1-f][1,2,4]triazin-7-yl)(piperidin-1-yl)methanone]
IC50: < 0.1 µM

COc1cc(-n2cnc(Nc3nc(N4CCC(F)(F)C4)nc4ccoc34)c2)cc(OC)c1OC [Compound 260a, 2-(3,3-difluoropyrrolidin-1-yl)-N-(1-(3,4,5-trimethoxyphenyl)-1H-imidazol-4-yl)furo[3,2-d]pyrimidin-4-amine]
IC50: < 0.1 µM

COc1cc(-n2cnc(Nc3nc(N4CC[C@H](N(C)C)C4)nc4ccoc34)c2)cc(OC)c1OC [Compound 261a, (S)-2-(3-(dimethylamino)pyrrolidin-1-yl)-N-(1-(3,4,5-trimethoxyphenyl)-1H-imidazol-4-yl)furo[3,2-d]pyrimidin-4-amine]
IC50: < 0.1 µM

OC[C@@H]1CCCN1c1nc(Nc2cn(-c3cccc(OC(F)(F)F)c3)cn2)nn2cccc12 [Compound 262d, (S)-(1-(2-((1-(3-(trifluoromethoxy)phenyl)-1H-imidazol-4-yl)amino)pyrrolo[2,1-f][1,2,4]triazin-4-yl)pyrrolidin-2-yl)methanol]
IC50: > 1 µM

Cc1cc(OC(F)(F)F)cc(-n2cnc(Nc3nc(N4CCC[C@H]4CO)c4cccn4n3)c2)c1 [Compound 263d, (S)-(1-(2-((1-(3-methyl-5-(trifluoromethoxy)phenyl)-1H-imidazol-4-yl)amino)pyrrolo[2,1-f][1,2,4]triazin-4-yl)pyrrolidin-2-yl)methanol]
IC50: > 1 µM

COc1cc(-n2cnc(Nc3nc4c(c(N5CCC[C@@H]5CO)n3)CCCC4)c2)cc(OC)c1OC [Compound 264b, (R)-(1-(2-((1-(3,4,5-trimethoxyphenyl)-1H-imidazol-4-yl)amino)-5,6,7,8-tetrahydroquinazolin-4-yl)pyrrolidin-2-yl)methanol]
IC50: < 0.1 µM

COc1cc(-n2cnc(Nc3nc(N(C)C4CCN(C)CC4)nc4ccoc34)c2)cc(OC)c1OC [Compound 265a, N2-methyl-N2-(1-methylpiperidin-4-yl)-N4-(1-(3,4,5-trimethoxyphenyl)-1H-imidazol-4-yl)furo[3,2-d]pyrimidine-2,4-diamine]
IC50: < 0.1 µM

COc1cc(-n2cnc(Nc3nc(N4CCC[C@H]4C(N)=O)nc4cc(F)ccc34)c2)cc(OC)c1OC [Compound 266c, (S)-1-(7-fluoro-4-((1-(3,4,5-trimethoxyphenyl)-1H-imidazol-4-yl)amino)quinazolin-2-yl)pyrrolidine-2-carboxamide]
IC50: < 0.1 µM

COc1c(O)cc(-n2cnc(Nc3nc(N4CCC[C@H]4CO)nn4cccc34)c2)cc1C(=O)NCC1CC1 [Compound 267i, (S)—N-(cyclopropylmethyl)-3-hydroxy-5-(4-((2-(2-(hydroxymethyl)pyrrolidin-1-yl)pyrrolo[2,1-f][1,2,4]triazin-4-yl)amino)-1H-imidazol-1-yl)-2-methoxybenzamide]
IC50: 0.1 to 1 µM

COc1cc(-n2cnc(Nc3nc(N4CCC[C@H]4CO)nn4cccc34)c2)cc(C(N)=O)c1O [Compound 268b, (S)-2-hydroxy-5-(4-((2-(2-(hydroxymethyl)pyrrolidin-1-yl)pyrrolo[2,1-f][1,2,4]triazin-4-yl)amino)-1H-imidazol-1-yl)-3-methoxybenzamide]
IC50: < 0.1 µM

COc1cc(-n2cnc(Nc3nc(N4CCC[C@H]4CO)nc4cc(F)ccc34)c2)cc(OC)c1OC [Compound 269a, (S)-(1-(7-fluoro-4-((1-(3,4,5-trimethoxyphenyl)-1H-imidazol-4-yl)amino)quinazolin-2-yl)pyrrolidin-2-yl)methanol]
IC50: < 0.1 µM

COc1cc(-n2cnc(Nc3nc(N4CCC[C@H]4CO)nc4cc(N5CCC[C@H]5CO)ccc34)c2)cc(OC)c1OC [Compound 269b, ((2S,2′S)-1,1′-(4-((1-(3,4,5-trimethoxyphenyl)-1H-imidazol-4-yl)amino)quinazoline-2,7-diyl)bis(pyrrolidine-2,1-diyl))dimethanol]
IC50: < 0.1 µM

COc1cc(-n2cnc(Nc3nc(N4C(=O)CC[C@H]4CO)nc4ccoc34)c2)cc(OC)c1OC [Compound 270a, (S)-5-(hydroxymethyl)-1-(4-((1-(3,4,5-trimethoxyphenyl)-1H-imidazol-4-yl)amino)furo[3,2-d]pyrimidin-2-yl)pyrrolidin-2-one]
IC50: < 0.1 µM

COc1cc(-n2cnc(Nc3nc4c(c(N5CCC[C@H]5CO)n3)CCC4)c2)cc(OC)c1OC [Compound 271c, (S)-(1-(2-((1-(3,4,5-trimethoxyphenyl)-1H-imidazol-4-yl)amino)-6,7-dihydro-5H-cyclopenta[d]pyrimidin-4-yl)pyrrolidin-2-yl)methanol]
IC50: < 0.1 µM

COc1cc(-n2cnc(Nc3nc4c(c(N5CCC[C@@H]5CO)n3)CCC4)c2)cc(OC)c1OC [Compound 272b, (R)-(1-(2-((1-(3,4,5-trimethoxyphenyl)-1H-imidazol-4-yl)amino)-6,7-dihydro-5H-cyclopenta[d]pyrimidin-4-yl)pyrrolidin-2-yl)methanol]
IC50: < 0.1 µM

COc1cc(-n2cnc(Nc3nc4c(c(N5CCC[C@H]5CO)n3)CS(=O)(=O)CC4)c2)cc(OC)c1OC [Compound 273c, (S)-4-(2-(hydroxymethyl)pyrrolidin-1-yl)-2-((1-(3,4,5-trimethoxyphenyl)-1H-imidazol-4-yl)amino)-7,8-dihydro-5H-thiopyrano[4,3-d]pyrimidine 6,6-dioxide]
IC50: < 0.1 µM

COc1cc(-n2cnc(Nc3nc(N4CCC[C@H]4CO)nc4c3CN(C(C)C)C4=O)c2)cc(OC)c1OC [Compound 274c, (S)-2-(2-(hydroxymethyl)pyrrolidin-1-yl)-6-isopropyl-4-((1-(3,4,5-trimethoxyphenyl)-1H-imidazol-4-yl)amino)-5H-pyrrolo[3,4-d]pyrimidin-7(6H)-one]
IC50: < 0.1 µM

COc1cc(-n2cnc(Nc3nc(N4CCC[C@@H]4CO)nc4c3CN(C(C)C)C4=O)c2)cc(OC)c1OC [Compound 275a, (R)-2-(2-(hydroxymethyl)pyrrolidin-1-yl)-6-isopropyl-4-((1-(3,4,5-trimethoxyphenyl)-1H-imidazol-4-yl)amino)-5H-pyrrolo[3,4-d]pyrimidin-7(6H)-one]
IC50: < 0.1 µM

COc1cc(-n2cnc(Nc3nc(N4CCC[C@H]4CO)c4ccc(F)cc4n3)c2)cc(OC)c1OC [Compound 276b, (S)-(1-(7-fluoro-2-((1-(3,4,5-trimethoxyphenyl)-1H-imidazol-4-yl)amino)quinazolin-4-yl)pyrrolidin-2-yl)methanol]
IC50: < 0.1 µM

COc1cc(-n2cnc(Nc3nc(N4CCC[C@@H]4C(N)=O)nc4cc(OC(C)C)ccc34)c2)cc(OC)c1OC [Compound 277a, (R)-1-(7-isopropoxy-4-((1-(3,4,5-trimethoxyphenyl)-1H-imidazol-4-yl)amino)quinazolin-2-yl)pyrrolidine-2-carboxamide]
IC50: < 0.1 µM

COc1cc(-n2cnc(Nc3nc(N4CCC[C@@H]4CO)c4ccc(OC(C)C)cc4n3)c2)cc(OC)c1OC [Compound 278b, (R)-(1-(7-isopropoxy-2-((1-(3,4,5-trimethoxyphenyl)-1H-imidazol-4-yl)amino)quinazolin-4-yl)pyrrolidin-2-yl)methanol]
IC50: < 0.1 µM

COc1cc(-n2cnc(Nc3nc4c(c(N5CCC[C@H]5CO)n3)COC4)c2)cc(OC)c1OC [Compound 279c, (S)-(1-(2-((1-(3,4,5-trimethoxyphenyl)-1H-imidazol-4-yl)amino)-5,7-dihydrofuro[3,4-d]pyrimidin-4-yl)pyrrolidin-2-yl)methanol]
IC50: < 0.1 µM

COc1cc(-n2cnc(Nc3nc4c(c(N5CCC[C@@H]5CO)n3)COC4)c2)cc(OC)c1OC [Compound 280b, (R)-(1-(2-((1-(3,4,5-trimethoxyphenyl)-1H-imidazol-4-yl)amino)-5,7-dihydrofuro[3,4-d]pyrimidin-4-yl)pyrrolidin-2-yl)methanol]
IC50: < 0.1 µM

COc1cc(-n2cnc(Nc3nc(N4CCC[C@H]4CO)nc4c3COC4)c2)cc(OC)c1OC [Compound 281b, (S)-(1-(4-((1-(3,4,5-trimethoxyphenyl)-1H-imidazol-4-yl)amino)-5,7-dihydrofuro[3,4-d]pyrimidin-2-yl)pyrrolidin-2-yl)methanol]
IC50: < 0.1 µM

COc1cc(-n2cnc(Nc3nc(N4CCC[C@@H]4CO)nc4c3COC4)c2)cc(OC)c1OC [Compound 282a, (R)-(1-(4-((1-(3,4,5-trimethoxyphenyl)-1H-imidazol-4-yl)amino)-5,7-dihydrofuro[3,4-d]pyrimidin-2-yl)pyrrolidin-2-yl)methanol]
IC50: < 0.1 µM

COc1cc(-n2cnc(Nc3nc(N4CC[C@@H](CO)C4)c4cccn4n3)c2)cc(OC)c1OC [Compound 283b, (R)-(1-(2-(1-(3,4,5-trimethoxyphenyl)-1H-imidazol-4-ylamino)pyrrolo[1,2-f][1,2,4]triazin-4-yl)pyrrolidin-3-yl)methanol]
IC50: < 0.1 µM
